The test addresses α7 nAChR subtype (Rattus norvegicus, UniProt Q05941). The format is binding. The note with it: read-out: KD of radioligand (saturation curves, one site model).

Chain of α7 nAChR subtype (Q05941 23-502 limits assumed): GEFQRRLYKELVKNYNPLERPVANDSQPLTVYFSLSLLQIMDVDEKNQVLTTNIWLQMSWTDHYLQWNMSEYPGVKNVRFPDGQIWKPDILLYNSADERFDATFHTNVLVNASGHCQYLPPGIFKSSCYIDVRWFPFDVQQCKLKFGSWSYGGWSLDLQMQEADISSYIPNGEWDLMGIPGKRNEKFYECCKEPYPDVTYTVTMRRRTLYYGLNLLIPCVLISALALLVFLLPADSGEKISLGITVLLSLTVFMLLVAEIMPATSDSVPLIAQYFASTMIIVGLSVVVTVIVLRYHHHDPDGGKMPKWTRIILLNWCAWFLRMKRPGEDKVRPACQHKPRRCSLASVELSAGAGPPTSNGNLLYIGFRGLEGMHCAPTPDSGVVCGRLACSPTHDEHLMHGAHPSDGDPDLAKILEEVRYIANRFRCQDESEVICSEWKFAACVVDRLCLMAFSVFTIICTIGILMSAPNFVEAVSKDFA

With [^125I]-α-Bungarotoxin [[^125I]-α-BTX], the Kd amounted to 1.67 nM.

The values are drawn from patent US7186836B2 (priority 2002, dated 2007).
